Source: paper PMC9671962 (Communications Biology, 2022)
Where “and” joins values, the source holds several entries; their conditions need not be identical. Equal values may be shown once.

Experiments:
NB-1643x = test: Pre-clinical efficacy study, NB-1643x PDX; assay type: in vivo; details: 36 MBq/kg/fraction x 4 fractions, single mouse
Procedure: Patient demographics and genetic characteristics are listed in (Supplementary Tables 1, 2)[17]. The maximum tolerated dose (MTD) was determined to be 36 MBq/kg administered by intra-peritoneal injection twice weekly for a total of 4 dose fractions and this fractionated regimen was used in all studies (Supplementary Fig. 1)[18],[19]. […] Nine of 11 PDX models were MYCN amplified (Fig. 1b), which is a hallmark of high-risk neuroblastoma. Tumor response was measured as the maximum percent decrease in tumor volume after treatment and event-free survival (EFS) was measured by the area over the curve method with tumor events pre-defined by tumor growth exceeding 2 cm[3],[18].
The use of 2 mice per arm was based on the previously reported statistical analysis. […] Two additional dose levels of 12, and 24 MBq/kg/fraction were assessed in a subset of models and were administered as stated above. […] Tumors were measured using a digital caliper at the initiation of the study and two times per week during the treatment period. Tumor volumes were calculated as volume = ((diameter^1/2 + diameter^2/2)^3∗0.5236)/1000. Weights were obtained twice weekly and mice were monitored daily for signs of toxicity. […] Tumor response was assessed by best response defined as greatest reduction in tumor volume following the last dose and is presented as percent change in tumor volume. […]

[1] = assay type: in vivo; details: CB57/BL6 mice; twice weekly, total of 4 dose fractions
Procedure: Toxicity studies were done in nontumor bearing CB-17 SCID mice (Taconic Biosciences). […] Each arm had n = 10 mice (5 male, 5 female mice). […] The vehicle group received an equal volume of saline (placebo). Weights were obtained twice weekly and mice were monitored daily for signs of toxicity. […] On target hematological and marrow toxicity which was evaluated by complete blood counts and marrow colony formation assay. An additional study was performed under identical conditions to evaluate additive dose effects. […] Each treatment group was composed of equal numbers of male and female mice to rule out gender-specific effects (n = 4 per treatment group per time point). Mice were followed for signs of acute toxicity for 2 weeks and 4 weeks before euthanasia. An additional group (n = 4) treated at 36 MBq/kg was euthanized after 72 h to assess early signs of toxicity by colony formation assays. This time course was chosen to best capture the nadir of bone marrow suppression. After euthanasia, blood was collected and femurs were dissected and processed for histopathology and bone marrow evaluation.
Supplementary Fi g u re 4: To le r a b ilit y studies to determine hematological and marrow toxicity of
[211At]PTT in CB57BL6 mice. a) Maximum tolerated dose finding studies fo r [211At]PTT administered
as 4 dose fractions given twice weekly in CB57BL6 mice. b) Complete blood counts assessed at 72 […]

[2] = design: method as in PMID 31072830; details: cited from earlier work

Which results are given for O=C1NCCn2c(-c3ccc([211At])cc3)nc3cccc1c32 [[^211At]PTT, Astatine-211-parthanatine]?
EFS by AOC method (NB-1643x): 90.5 days and 76.6 days and 90.5782 days and 76.6342 days; Tumor response (% growth from study initiation at ~ 200 mm3) (NB-1643x): -95.4545% and -100%; MTD [1]: 48 MBq/kg/fraction; outcome of single dose ([2]; 1,480 kBq administered as a single dose): lethal; outcome of fractionated dose ([2]; 1,480 kBq separated into 4 dose fractions given twice weekly): tolerated
